Read-outs that look alike come from different tables or passages of the source.
Tests used:
Myzus persicae = Myzus persicae - spray test (Chinese cabbage leaf discs); assay type: in vivo; conditions: after 6 days; for pest or weed control at 500 g/ha: Myzus persicae, foliar, 144 h, read-out: efficacy (aphids killed)
Protocol: Myzus persicae—Spray Test
Solvent: 78 parts by weight of acetone • • 1.5 parts by weight of dimethylformamide
Emulsifier: alkylaryl polyglycol ether
To produce further test concentrations, the preparation is diluted with emulsifier-containing water.
After 6 days, the efficacy in % is determined 100% means that all the aphids have been killed; 0% means that none of the aphids have been killed.

[1] = log P by HPLC on reversed-phase C18 columns (OECD Guideline 117); method [a] acidic pH 2.7, method [b] neutral pH 7.8; assay type: physicochemical; conditions: for chromatographic logP: reversed-phase C18 HPLC column
[2] = HPLC reversed-phase C18, method [a] acidic pH 2.7, read-out: logP[a]
[3] = HPLC reversed-phase C18, method [b] neutral pH 7.8, read-out: logP[b]
[4] = HPLC reversed-phase C18, method [b] neutral pH 7.8
[5] = HPLC reversed-phase C18, method [a] acidic pH 2.7

chromatographic logP [1, 2] | chromatographic logP [1, 3] | Compound | pest or weed control at 500 g/ha (Myzus persicae; application rate 500 g/ha) | efficacy (aphids killed) (Myzus persicae; application rate 500 g/ha) | logP[b] [1, 4] | logP[a] [1, 5] | efficacy (aphids killed) (Myzus persicae; application rate 100 g/ha)
1.35 | 1.43 | CC(C)n1cnc2nc(-c3cccnc3)sc2c1=O [Compound 1, 6-Isopropyl-2-(pyridin-3-yl)[1,3]thiazolo[4,5-d]pyrimidin-7(6H)-one] | 100% |  |  |  | 
 |  | O=c1c2sc(-c3cccnc3)nc2ncn1C1CC1 [Compound 2] |  | 100% | 1.05 |  | 
1.7 |  | CC(C)Cn1cnc2nc(-c3cccnc3)sc2c1=O [Compound 3, 6-Isobutyl-2-(pyridin-3-yl)[1,3]thiazolo[4,5-d]pyrimidin-7(6H)-one] | 100% |  |  |  | 
 |  | O=c1c2sc(-c3cccnc3)nc2ncn1CC(F)F [Compound 4] |  | 100% |  | 1.19 | 
1.54 |  | O=c1c2sc(-c3cccnc3)nc2ncn1CC(F)(F)F [Compound 5, 2-(Pyridin-3-yl)-6-(2,2,2-trifluoroethyl)[1,3]thiazolo[4,5-d]pyrimidin-7(6H)-one] | 100% |  |  |  | 
 |  | O=c1c2sc(-c3cccnc3)nc2ncn1CC(F)(F)C(F)F [Compound 6] |  | 90% |  | 1.57 | 
 |  | CN(C)C(=O)Cn1cnc2nc(-c3cccnc3)sc2c1=O [Compound 7] |  | 100% |  | 0.65 | 
 |  | Cc1cccc(-n2cnc3nc(-c4cccnc4)sc3c2=O)c1 [Compound 8] |  | 90% | 1.94 | 1.94 | 
 |  | O=c1c2sc(-c3cccnc3)nc2ncn1-c1cccc(C(F)(F)F)c1 [Compound 9] |  | 100% | 2.23 | 2.26 | 
 |  | COc1ccc(-n2cnc3nc(-c4cccnc4)sc3c2=O)cc1 [Compound 12] |  | 90% | 1.76 | 1.73 | 
 |  | CSc1cccc(-n2cnc3nc(-c4cccnc4)sc3c2=O)c1 [Compound 13] |  | 90% | 2.08 | 2.09 | 
 |  | C[S+]([O-])c1cccc(-n2cnc3nc(-c4cccnc4)sc3c2=O)c1 (stereo not shown) [Compound 14] |  | 90% | 1.09 | 1.04 | 
 |  | CSc1cc(-n2cnc3nc(-c4cccnc4)sc3c2=O)ccc1C [Compound 15] |  | 100% | 2.35 | 2.42 | 
 |  | Cc1ccc(-n2cnc3nc(-c4cccnc4)sc3c2=O)cc1[S+](C)[O-] (stereo not shown) [Compound 16] |  | 90% | 1.26 | 1.25 | 
 |  | O=c1c2sc(-c3cccnc3)nc2ncn1-c1ccc(F)c(SC(F)(F)F)c1 [Compound 17] |  | 90% | 2.66 | 2.70 | 
 |  | O=c1c2sc(-c3cccnc3)nc2ncn1-c1ccc(F)c([S+]([O-])C(F)(F)F)c1 (stereo not shown) [Compound 18] |  | 90% | 1.95 | 2.01 | 
 |  | CCSc1cccc(-n2cnc3nc(-c4cccnc4)sc3c2=O)c1 [Compound 19] |  |  | 2.43 | 2.39 | 90%
 |  | CC[S+]([O-])c1cccc(-n2cnc3nc(-c4cccnc4)sc3c2=O)c1 (stereo not shown) [Compound 20] |  | 100% | 1.26 | 1.24 | 
2.95 | 2.91 | Cc1cc(F)c(-n2cnc3nc(-c4cccnc4)sc3c2=O)cc1SCC(F)(F)F [Compound 21, 6-{2-Fluoro-4-methyl-5-[(2,2,2-trifluoroethyl)sulphanyl]phenyl}-2-(pyridin-3-yl)[1,3]thiazolo[4,5-d]pyrimidin-7(6H)-one] | 90% |  |  |  | 
2.01 | 1.98 | Cc1cc(F)c(-n2cnc3nc(-c4cccnc4)sc3c2=O)cc1[S+]([O-])CC(F)(F)F (stereo not shown) [Compound 22, 6-{2-Fluoro-4-methyl-5-[(2,2,2-trifluoroethyl)sulphinyl]phenyl}-2-(pyridin-3-yl)[1,3]thiazolo[4,5-d]pyrimidin-7(6H)-one] | 90% |  |  |  | 
1.49 | 1.45 | Cc1cc(F)c(-n2cnc3nc(-c4ccc[n+]([O-])c4)sc3c2=O)cc1[S+]([O-])CC(F)(F)F (stereo not shown) [Compound 23, 6-{2-Fluoro-4-methyl-5-[(2,2,2-trifluoroethyl)sulphinyl]phenyl}-2-(1-oxidopyridin-3-yl)[1,3]thiazolo[4,5-d]pyrimidin-7(6H)-one] | 100% |  |  |  | 
 |  | CC(C)Sc1cccc(-n2cnc3nc(-c4cccnc4)sc3c2=O)c1 [Compound 24] |  | 90% | 2.70 | 2.76 | 
 |  | CC(C)[S+]([O-])c1cccc(-n2cnc3nc(-c4cccnc4)sc3c2=O)c1 (stereo not shown) [Compound 25] |  | 90% | 1.43 | 1.39 | 

chromatographic logP [1, 2] | chromatographic logP [1, 3] | Compound | pest or weed control at 500 g/ha (Myzus persicae; application rate 500 g/ha) | efficacy (aphids killed) (Myzus persicae; application rate 500 g/ha) | logP[b] [1, 4] | logP[a] [1, 5] | efficacy (aphids killed) (Myzus persicae; application rate 100 g/ha)
 |  | CC(C)CSc1cccc(-n2cnc3nc(-c4cccnc4)sc3c2=O)c1 [Compound 26] |  | 90% | 3.08 | 3.18 | 
 |  | CC(C)C[S+]([O-])c1cccc(-n2cnc3nc(-c4cccnc4)sc3c2=O)c1 (stereo not shown) [Compound 27] |  | 90% | 1.68 | 1.73 | 
2.47 | 2.43 | O=c1c2sc(-c3cccnc3)nc2ncn1Cc1cccc(C(F)(F)F)c1 [Compound 28, 2-(Pyridin-3-yl)-6-[3-(trifluoromethyl)benzyl][1,3]thiazolo[4,5-d]pyrimidin-7(6H)-one] |  |  |  |  | 
 |  | COc1cccc(Cn2cnc3nc(-c4cccnc4)sc3c2=O)c1 [Compound 32] |  |  | 1.92 | 1.91 | 
1.09 |  | O=c1c2sc(-c3cccnc3)nc2ncn1Cc1ccccn1 [Compound 34, 2-(Pyridin-3-yl)-6-(pyridin-2-ylmethyl)[1,3]thiazolo[4,5-d]pyrimidin-7(6H)-one] | 100% |  |  |  | 
 |  | O=c1c2sc(-c3cccnc3)nc2ncn1Cc1cccnc1 [Compound 35] |  | 100% | 0.72 |  | 
 |  | O=c1c2sc(-c3cccnc3)nc2ncn1Cc1ccncc1 [Compound 36] |  | 90% |  | 0.55 | 
1.36 | 1.42 | Cc1nc(Cn2cnc3nc(-c4cccnc4)sc3c2=O)cs1 [Compound 38, 6-[(2-Methyl-1,3-thiazol-4-yl)methyl]-2-(pyridin-3-yl)[1,3]thiazolo[4,5-d]pyrimidin-7(6H)-one] |  |  |  |  | 
1.53 | 1.52 | O=c1c2sc(-c3cccnc3)nc2ncn1CC1CC1 [Compound 39, 6-(Cyclopropylmethyl)-2-(pyridin-3-yl)[1,3]thiazolo[4,5-d]pyrimidin-7(6H)-one] | 100% |  |  |  | 
 |  | O=c1c2sc(-c3cccnc3)nc2ncn1-c1ccccc1F [Compound 40] |  | 100% | 1.69 | 1.70 | 
 |  | O=c1c2sc(-c3cccnc3)nc2ncn1-c1cccc(OCC(F)(F)F)c1 [Compound 41] |  | 90% | 2.34 | 2.33 | 
1.63 | 1.72 | CN(C)S(=O)(=O)c1cccc(-n2cnc3nc(-c4cccnc4)sc3c2=O)c1 [Compound 42, N,N-Dimethyl-3-[7-oxo-2-(pyridin-3-yl)[1,3]thiazolo[4,5-d]pyrimidin-6(7H)-yl]benzenesulphonamide] |  |  |  |  | 
 |  | O=c1c2sc(-c3cccnc3)nc2ncn1-c1ccc(Cl)cc1 [Compound 43] |  | 100% | 2.06 | 2.05 | 
 |  | O=c1c2sc(-c3cccnc3)nc2ncn1-c1cc([S+]([O-])CC2CC2)ccc1F (stereo not shown) [Compound 45] |  | 100% | 1.66 | 1.63 | 
 |  | O=c1c2sc(-c3cccnc3)nc2ncn1-c1cc(SCC(F)(F)F)ccc1F [Compound 46] |  | 90% | 2.56 | 2.60 | 
 |  | Cc1ccc(-n2cnc3nc(-c4cccnc4)sc3c2=O)cc1SCC(F)(F)F [Compound 47] |  | 90% | 2.75 | 2.73 | 
 |  | Cc1ccc(-n2cnc3nc(-c4cccnc4)sc3c2=O)cc1[S+]([O-])CC(F)(F)F (stereo not shown) [Compound 48] |  | 100% | 1.85 | 1.86 | 
3.04 | 2.98 | Cc1cc(C)c(-n2cnc3nc(-c4cccnc4)sc3c2=O)cc1SCC(F)(F)F [Compound 49, 6-{2,4-Dimethyl-5-[(2,2,2-trifluoroethyl)sulphanyl]phenyl}-2-(pyridin-3-yl)[1,3]thiazolo[4,5-d]pyrimidin-7(6H)-one] | 100% |  |  |  | 
 |  | CN(C)C(=O)c1cc2cc(-n3cnc4nc(-c5cccnc5)sc4c3=O)ccc2s1 [Compound 65] |  |  | 1.70 | 1.70 | 
2.34 | 2.29 | O=c1c2sc(-c3cccnc3)nc2ncn1-c1ccccc1SCC(F)(F)F [Compound 68, 2-(Pyridin-3-yl)-6-{2-[(2,2,2-trifluoroethyl)sulphanyl]phenyl}[1,3]thiazolo[4,5-d]pyrimidin-7(6H)-one] |  |  |  |  | 
1.74 | 1.75 | O=c1c2sc(-c3cccnc3)nc2ncn1-c1ccccc1[S+]([O-])CC(F)(F)F (stereo not shown) [Compound 69, 2-(Pyridin-3-yl)-6-{2-[(2,2,2-trifluoroethyl)sulphinyl]phenyl}[1,3]thiazolo[4,5-d]pyrimidin-7(6H)-one] |  |  |  |  | 
 |  | Cc1ccc(-n2cnc3nc(-c4cncnc4)sc3c2=O)cc1 [Compound 75] |  |  | 1.72 | 1.80 | 

Reference: patent publication US10294243B2, “Bicyclic compounds as pesticides” (BAYER CROPSCIENCE AKTIENGESELLSCHAFT, priority 2014, dated 2019)
